These results are taken from ChEMBL document CHEMBL1201862, “PubChem BioAssay data set” (2004).

Among the test systems are ACHN; M19-MEL; LXFL 529; SR; DMS-114; DLD-1; Malme-3M; SN12C; HOP-18; SK-OV-3; OVCAR-5; DMS-273; LOX IMVI; MCF7; HCT-15; NCI/ADR-RES; Hs-578T; BT-549; PC-3; MDA-MB-435.
What all share (assay): DTP human tumour cell line panel, 48 h

The term GI50 denotes the concentration that inhibits growth by half.

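Following 48 hours of exposure in 96-well plates, responses at five concentrations were used to interpolate endpoints linearly. Abbreviation: GI50, concentration required for 50% inhibition of growth.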 Calls of active or inactive are those of the source. No stated cut-off is given here; in the data, active = GI50 up to about 1.1 µM and inactive = higher.

In the case of `COC(=O)C1=C(C)N2CCCOC2(C)C(C(=O)OC)C1c1cccc(Cl)c1` (stereo not given), the GI50 with ACHN is 28.2 µM (inactive); with M19-MEL it was 20.6 µM (inactive); in the experiment on LXFL 529 it was 20 µM (inactive); in the experiment with SR, > 10 µM (inactive); in the experiment on DMS-114, 19.1 µM (inactive).
Take `CCCCC#CS(=O)(=O)C(F)(F)F`: the GI50 in the experiment with DLD-1 is > 100 µM (inactive); with Malme-3M it was > 100 µM (inactive); in the experiment on SN12C it was > 100 µM (inactive); in the experiment on HOP-18, > 100 µM (inactive); in the experiment with SK-OV-3, > 94.2 µM (inactive); in the experiment with OVCAR-5, > 100 µM (inactive). The GI50 in the experiment with DMS-273 is 48 µM (inactive); in the experiment on DMS-114 it was 37.2 µM (inactive); with LOX IMVI, 60.7 µM (inactive); in the experiment on MCF7, 52.6 µM (inactive); in the experiment with HCT-15, 90.4 µM; in the experiment on NCI/ADR-RES, 47.3 µM (inactive).
Turning to `O=C1/C(=C/c2ccc(Cl)cc2)N=C(c2ccccc2)N1/N=C/c1ccccc1O`, the GI50 with Malme-3M is 1.98 µM (inactive); in the experiment with Hs-578T it was 36.4 µM (inactive); in the experiment on ACHN, 5.05 µM (inactive); in the experiment on SN12C, 23.4 µM (inactive); with BT-549, 16.4 µM (inactive); in the experiment on SK-OV-3, 5.61 µM (inactive). In addition, the GI50 is 12.7 µM (inactive) with OVCAR-5; 10.3 µM (inactive) with PC-3; 13.2 µM (inactive) in the experiment with LOX IMVI; 13.9 µM (inactive) in the experiment with MCF7; 26.7 µM (inactive) in the experiment on MDA-MB-435; 30.9 µM in the experiment on HCT-15. Further, the GI50 in the experiment on NCI/ADR-RES is 18.2 µM (inactive).
